Molecules are shown by their SMILES.

The record followed here is ChEMBL document CHEMBL2311445, “Discovery of novel inhibitors of LEDGF/p75-IN protein-protein interactions” (Bioorg Med Chem, 2013).

Experiment [1] relates to Human immunodeficiency virus 1. Briefly: Antiviral activity against HIV1 3B infected in human MT4 cells assessed as inhibition of virus-induced cytopathic effect by MTT assay. Format: functional, organism-based. The settings on record: Human immunodeficiency virus 1, 3B.
Experiment [2] addresses T1, Human immunodeficiency virus type 1 integrase (Human immunodeficiency virus 1, UniProt Q7ZJM1). Briefly: Inhibition of wild type HIV1 integrase strand transfer activity using 5'-end 32P-labeled linear oligonucleotide as substrate preincubated for 30 mins.
Experiment [3] has as its target T1, Human immunodeficiency virus type 1 integrase. Briefly: Inhibition of wild type HIV1 integrase 3'-processing activity using 5'-end 32P-labeled linear oligonucleotide as substrate preincubated for 30 mins.
A short description of experiment [4]: Inhibition of human Flag-tagged LEDGF interaction to His6-tagged HIV1 integrase expressed in Escherichia coli BL21 (DE3) preincubated for 20 mins measured after 1 hr by AlphaScreen proximity luminescent assay.
The subject of a further experiment is HCT-116. Briefly: Cytotoxicity against human HCT116 p53 +/+ and -/- cells after 72 hrs by MTT assay. The class given is cell-based. The settings on record: HCT-116, 72 h. (In general: Tetrazolium assays rely on reduction of a dye to a coloured formazan, in cell work by metabolically active cells.)

T1 sequence (Q7ZJM1 whole entry): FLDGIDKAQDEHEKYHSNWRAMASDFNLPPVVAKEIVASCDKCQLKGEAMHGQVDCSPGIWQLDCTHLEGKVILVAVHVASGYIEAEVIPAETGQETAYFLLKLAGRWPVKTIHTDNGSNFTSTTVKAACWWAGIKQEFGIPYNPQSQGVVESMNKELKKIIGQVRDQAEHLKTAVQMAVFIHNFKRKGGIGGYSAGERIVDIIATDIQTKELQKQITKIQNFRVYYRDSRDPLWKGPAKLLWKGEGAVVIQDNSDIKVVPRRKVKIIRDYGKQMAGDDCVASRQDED

One may read the IC50 as the concentration that gives 50% inhibition. On to `C=CC/N=c1/scc(-c2ccccc2Br)n1/N=C/c1ccccn1`, for which the IC50 in experiment [1] is over 1 µM; in experiment [2], over 100 µM; in experiment [3], over 100 µM; in experiment [4], 23 µM.

Regarding `NNC(=O)Cn1cnc(-c2ccc(F)cc2)c1`, in experiment [4], the IC50 is over 50 µM.

By EC50 is commonly meant the concentration needed to bring the measured effect to its halfway point. The compound `Cc1occc1C(=O)NN/C=C1/C(=O)N(c2ccccc2Cl)C(=O)c2ccccc21` registered an EC50 with HCT-116 of 6.5 µM. Also, the IC50 in experiment [2] amounted to 75 µM; in experiment [3], 90 µM; in experiment [4] it was 8 µM.

On to `Cc1sc2ncnc(N/N=C/c3c(O)ccc4ccccc34)c2c1C`, for which the EC50 in the experiment on HCT-116 is under 1 µM. Besides, the half-maximal inhibitory concentration (IC50) in experiment [2] was 52 µM; in experiment [3], 77 µM; in experiment [4] it was 6 µM.

Compound `Cc1nc2ccccc2c(=O)n1/N=C/c1ccccc1O` had an EC50 with HCT-116 of 10 µM. Further, the half-maximal inhibitory concentration (IC50) in experiment [4] is over 50 µM.

For the compound `COc1c(Cl)cc(Cl)cc1/C=N/NC(=O)c1ccncc1`, the half-maximal inhibitory concentration (IC50) is over 100 µM in experiment [2], over 100 µM in experiment [3] and over 50 µM in experiment [4].

As for `O=C(CP(=O)(c1ccccc1)c1ccccc1)N/N=C/c1cc(Br)cc(Br)c1O`, the EC50 in the experiment on HCT-116 turned out to be 3.3 µM. Moreover, the IC50 was 100 µM in experiment [2], 100 µM in experiment [3] and 50 µM in experiment [4].

In the experiment on HCT-116, `O=C(COc1ccc(Cl)cc1Cl)N/N=C/c1cc(Br)ccc1O` showed an EC50 of over 10 µM. Further, the results for the IC50 in experiment [2], in experiment [3] and in experiment [4] were over 100 µM, over 100 µM and 50 µM, respectively.

Turning to `CC/C(=N\NC(=O)c1ccc(F)cc1)c1cc(Cl)cc(Cl)c1O`, it took 2.5 µM to reach a half-maximal effect with HCT-116 (EC50). The IC50 in experiment [4] is over 50 µM.

In turn, `CC(=O)c1ccc(/N=N/c2ccc(C[P+](c3ccccc3)(c3ccccc3)c3ccccc3)cc2)cc1` came in with an EC50 with HCT-116 of 0.5 µM. Moreover, the IC50 in experiment [2] was over 100 µM; in experiment [3], over 100 µM; in experiment [4], 12 µM.

As to `CCN(CC)c1ccc(/C=C2\CCC(/C=N/N=C/c3c(C)[nH]c4ccccc34)=C2N2CCOCC2)cc1`, in the experiment on HCT-116, the EC50 was over 10 µM. In experiment [4], this compound showed an IC50 of 40 µM.

For `Cc1nnc(Cl)c2c1[nH]c1ccccc12`, the IC50 in experiment [4] was over 50 µM.

Compound `Cn1cccc1/C=N/N1CCN(Cc2ccccc2)CC1` gave an EC50 in the experiment with HCT-116 of over 10 µM. Besides, the IC50 in experiment [2] is over 100 µM; in experiment [3], over 100 µM; in experiment [4], 32 µM.

Take `O=C(N/N=C/c1cc(Br)ccc1O)C1=NNC2CCCCC12` (stereo unspecified): in the experiment with HCT-116, the EC50 turned out to be 5 µM. In addition, the IC50 was 15 µM in experiment [2], 29 µM in experiment [3] and 4 µM in experiment [4].

The compound `COC(=O)c1ccc(/N=N/c2ccc([P+](c3ccccc3)(c3ccccc3)c3ccccc3)cc2)cc1` returned an EC50 in the experiment on HCT-116 of 0.4 µM. Further, half-maximal inhibition in experiment [4] (IC50) was put at 36 µM.

With `Cc1nnc(NN)c2c1[nH]c1ccccc12`, the IC50 in experiment [1] is over 50 µM; in experiment [2], over 100 µM; in experiment [3], over 100 µM; in experiment [4] it was 5 µM.

For the compound `CC/N=c1/scc(-c2ccc(Br)cc2)n1/N=C/c1ccc(O)c(O)c1O`, the EC50 with HCT-116 is over 10 µM. The IC50 in experiment [1] is over 35 µM; in experiment [4], under 25 µM.

In the experiment on HCT-116, `Cc1cc(C)nc(N/N=C/c2cccc(O)c2)n1` showed an EC50 of 4 µM. This compound showed an IC50 in experiment [4] of over 50 µM.

`CCNc1nc(NCC)nc(C(=O)NN)n1`: the IC50 was over 20 µM in experiment [1], under 100 µM in experiment [2], under 100 µM in experiment [3] and 6 µM in experiment [4].

`CCN(CC)c1ccc(/C=C2\CCC(/C=N/N3CCN(c4ccc(C)cc4)CC3)=C2N2CCOCC2)cc1` registered an EC50 with HCT-116 of 3.3 µM. In experiment [4], this compound displayed an IC50 of 46 µM.

Regarding `CC(C)c1ccc(/C=N/N2CCN(Cc3ccccc3)CC2)cc1`, the EC50 with HCT-116 is over 10 µM. In experiment [4], this compound displayed an IC50 of 50 µM.

`O=C(Nn1cnc2ccccc2c1=O)c1cnccn1` yielded an IC50 in experiment [4] of 39 µM.

With `FC(F)(F)c1ccccc1/C=N/N1CCN(Cc2ccccc2)CC1`, the EC50 in the experiment on HCT-116 is over 10 µM. In addition, the IC50 in experiment [2] was over 100 µM; in experiment [3], over 100 µM; in experiment [4], 35 µM.

The compound `Cc1nnc(NNC(=O)c2ccccc2)c2c1[nH]c1ccccc12` registered an IC50 in experiment [4] of over 50 µM.

Regarding `O=[N+]([O-])c1ccccc1/C=N/N1CCN(Cc2ccccc2)CC1`, the EC50 with HCT-116 is under 10 µM. The midpoint of inhibition in experiment [4], the IC50, lay at 24 µM.

Regarding `COc1cc(/C=N/Nc2ccc(S(=O)(=O)Nc3ccccc3C(=O)O)cc2[N+](=O)[O-])ccc1O`, the IC50 in experiment [1] was over 10 µM; in experiment [2], over 100 µM; in experiment [3], over 100 µM; in experiment [4], 25 µM.

With `C/C(=N\NC(=O)C1CCCCC1)c1ccccc1O`, the EC50 in the experiment on HCT-116 is over 10 µM. Also, the IC50 in experiment [1] is over 20 µM; in experiment [4], 93 µM.

Consider `COc1ccc(O)c(/C=N/NC(=O)c2sc3ccccc3c2O)c1`, for which the midpoint of the response with HCT-116, the EC50, lay at 8 µM. Further, the figures for the IC50 in experiment [2], in experiment [3] and in experiment [4] were over 100 µM, over 100 µM and 38 µM, respectively.

In turn, `NNC(=O)c1cc(-c2ccc(Cl)cc2)n[nH]1` showed an EC50 with HCT-116 of 10 µM. Further, the IC50 in experiment [4] is over 50 µM.

`CCNc1nc(NCC)nc(C(=O)Nc2ccccc2)n1` registered an IC50 in experiment [4] of 21 µM.

In the experiment with HCT-116, `COc1ccc(CN2CCCN(c3ccc(S(=O)(=O)Nc4ccccc4)cc3[N+](=O)[O-])CC2)cc1` showed an EC50 of over 10 µM. Moreover, the IC50 in experiment [1] stood at 24 µM; in experiment [4], 34 µM.

In turn, `O=C(N/N=C/c1ccc(Cl)cc1Cl)c1cnccn1` returned an EC50 in the experiment on HCT-116 of over 10 µM. For the same compound, the figures for the IC50 in experiment [2], in experiment [3] and in experiment [4] were over 100 µM, over 100 µM and over 50 µM, respectively.

As to `O=C(N/N=C/c1c(O)ccc2ccccc12)c1ccncc1`, the IC50 in experiment [2] is over 100 µM; in experiment [3], over 100 µM; in experiment [4], 6 µM.

Regarding `Cc1[nH]n(-c2ccccc2)c(=O)c1/C=N/Nc1ccc([N+](=O)[O-])cc1`, the EC50 in the experiment on HCT-116 is over 10 µM. The compound further displayed an IC50 in experiment [4] of 6 µM.

For `O=C(N/N=C/c1ccc(O)cc1O)c1ccncc1`, in the experiment with HCT-116, the EC50 worked out at 4 µM. Besides, the IC50 in experiment [2] is over 100 µM; in experiment [3], over 100 µM; in experiment [4] it was 4 µM.

For `Oc1ccc(/C=N/N2CCN(c3ccccc3)CC2)cc1O`, the EC50 in the experiment with HCT-116 was over 10 µM. Further, the IC50 in experiment [2] was determined as 31 µM; in experiment [3] it was 69 µM; in experiment [4], 16 µM.

`O=C(N/N=C/c1ccc(Cl)cc1Cl)c1n[nH]c2c1CCC2` displayed an EC50 with HCT-116 of under 1 µM. In experiment [4], this compound registered an IC50 of over 50 µM.

On to `COc1cc(Br)cc(/C=N/NC(=O)c2ccccn2)c1O`, for which the IC50 in experiment [1] was over 22 µM; in experiment [2] it was 13 µM; in experiment [3], 17 µM; in experiment [4] it was 1.3 µM.

For the compound `O=C(N/N=C/c1cc(Br)ccc1O)c1cccnc1`, the IC50 in experiment [1] is over 3 µM; in experiment [2], over 100 µM; in experiment [3], over 100 µM; in experiment [4], 4 µM.

For `Oc1ccc(Br)cc1/C=N/Nc1cccc2cccnc12`, the IC50 was over 100 µM in experiment [2], over 100 µM in experiment [3] and over 50 µM in experiment [4].

On to `CC(Oc1ccccc1)C(=O)N/N=C/c1ccccc1O` (stereo unspecified), for which the midpoint of the response in the experiment on HCT-116, the EC50, lay at 6.5 µM. In experiment [4], this compound came in with an IC50 of 50 µM.

As for `O=C(N/N=C/c1cccnc1)C1=NNC2CCCCC12` (stereo unspecified), the EC50 with HCT-116 was determined as 5 µM. Further, the IC50 in experiment [1] is over 20 µM; in experiment [4], over 50 µM.

On to `O=C1C(O)=Cc2ccccc2/C1=N\Nc1ccc(Cl)cc1`, for which the IC50 was over 40 µM in experiment [1], 100 µM in experiment [2], over 100 µM in experiment [3] and 3 µM in experiment [4].
